Experimental data published in BigSolDB 2.1.

Cc1cccc2sc(NN)nc12
solubility (mole fraction)
Details	273.15 K	278.15 K	283.15 K	288.15 K	293.15 K	298.15 K	303.15 K	308.15 K	313.15 K	318.15 K
in acetone	0.00958	0.0118	0.0142	0.0172	0.0203	0.024	0.0285	0.0335	0.0391	0.0456
in ethanol	0.000807	0.00103	0.00131	0.00165	0.00203	0.00252	0.00313	0.00377	0.0046	0.00555
in ethyl acetate	0.00359	0.00453	0.00569	0.00696	0.00848	0.0101	0.0124	0.0147	0.0176	0.0209
in isopropanol	0.000928	0.00123	0.00153	0.00191	0.00235	0.00288	0.00353	0.00429	0.00519	0.0062
in methanol	0.000589	0.000758	0.00095	0.00119	0.00151	0.00185	0.00232	0.00284	0.00348	0.00422
in n-butanol	0.00137	0.00168	0.00216	0.00263	0.00329	0.00403	0.00505	0.00616	0.00755	0.00904
in n-propanol	0.00115	0.00143	0.00178	0.00218	0.00272	0.0033	0.00395	0.00481	0.00573	0.00696
in toluene	0.00227	0.00276	0.00366	0.00473	0.00583	0.00736	0.00925	0.0116	0.0145	0.0178
in water	7.03e-06	9.04e-06	1.18e-05	1.51e-05	1.96e-05	2.56e-05	3.21e-05	4.05e-05	5.05e-05	6.25e-05
